# Reference: US20100267561A1, “HERBICIDAL PYRIDAZINONE DERIVATIVES” (priority 2007, published 2010)
# Assays:
# Assay type in all cases: in vivo
# [1] = tested on: wild mustard (Sinapis arvensis); test: Test C pre-/postemergence plant response; conditions: Preemergence, 31 g ai/ha; scale 0 to 100 (0 no effect, 100 complete control)
# From the text: (§1) Seeds of plant species selected from annual bluegrass (Poa annua), blackgrass (Alopecurus myosuroides), canola (Brassica rapa), downy bromegrass (Bromus tectorum), green foxtail (Setaria viridis), Italian ryegrass (Lolium multiflorum), canarygrass (Phalaris minor), pigweed (Amaranthus retroflexus), spring barley (Hordeum vulgare), spring wheat (Triticum aestivum), wild mustard (Sinapis arvensis), wild oat (Avena fatua), windgrass (Apera spica-venti), winter barley (Hordeum vulgare), and winter wheat (Triticum aestivum) were planted and treated preemergence with test chemicals formulated in a non-phytotoxic solvent mixture which included a surfactant. At the same time, plants selected from these crop and weed species were treated with postemergence applications of some of the test chemicals formulated in the same manner. Plants ranged in height from 2 to 18 cm (1- to 4-leaf stage) for postemergence treatments.
# (§2) Treated plants and controls were maintained in a controlled growth environment for 15 to 25 days after which time all species were compared to controls and visually evaluated. Plant response ratings, summarized in Table C, are based on a scale of 0 to 100 where 0 is no effect and 100 is complete control. A dash (-) response means no test result.
# [2] = tested on: canarygrass (Phalaris minor); test: Test C pre-/postemergence plant response; conditions: Preemergence
# From the text: as §1, §2
# [3] = tested on: winter wheat (Triticum aestivum); test: Test C pre-/postemergence plant response; conditions: Preemergence
# From the text: as §1, §2
# [4] = tested on: pigweed (Amaranthus retroflexus); test: Test C pre-/postemergence plant response; conditions: Preemergence
# From the text: as §1, §2
# wild oat (Avena fatua) = test: Test C pre-/postemergence plant response; conditions: Preemergence
# From the text: as §1, §2
# [5] = tested on: windgrass (Apera spica-venti); test: Test C pre-/postemergence plant response; conditions: Preemergence
# From the text: as §1, §2
# [6] = tested on: annual bluegrass (Poa annua); test: Test C pre-/postemergence plant response; conditions: Preemergence
# From the text: as §1, §2
# [7] = tested on: spring wheat (Triticum aestivum); test: Test C pre-/postemergence plant response; conditions: Preemergence
# From the text: as §1, §2
# [8] = tested on: Italian ryegrass (Lolium multiflorum); test: Test C pre-/postemergence plant response; conditions: Preemergence
# From the text: as §1, §2
# [9] = tested on: green foxtail (Setaria viridis); test: Test C pre-/postemergence plant response; conditions: Preemergence
# From the text: as §1, §2
# [10] = tested on: blackgrass (Alopecurus myosuroides); test: Test C pre-/postemergence plant response; conditions: Preemergence
# From the text: as §1, §2
# [11] = tested on: winter barley (Hordeum vulgare); test: Test C pre-/postemergence plant response; conditions: Preemergence
# From the text: as §1, §2
# [12] = tested on: downy bromegrass (Bromus tectorum); test: Test C pre-/postemergence plant response; conditions: Preemergence
# From the text: as §1, §2
# [13] = tested on: chickweed (Stellaria media); test: Test B postemergence plant response; conditions: for Plant response rating, Chickweed: Postemergence
# How it was run: (§3)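 Visual injury score from 0 (none) to 100 (complete control) versus controls, taken 13 to 15 days after treatment in the greenhouse; chemicals applied postemergence, as formulated, to plants of 1- to 4-leaf stage (2 to 18 cm tall); dash denotes no test result.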
# [14] = tested on: canarygrass (Phalaris minor); test: Test B postemergence plant response; conditions: for Plant response rating, Canarygrass: Postemergence
# How it was run: as §3
# [15] = tested on: windgrass (Apera spica-venti); test: Test B postemergence plant response; conditions: for Plant response rating, Windgrass: Postemergence
# How it was run: as §3
# [16] = tested on: winter barley (Hordeum vulgare); test: Test B postemergence plant response; conditions: for Plant response rating, Barley: Postemergence, scale 0 to 100, 0 no effect, 100 complete control
# How it was run: as §3
# [17] = 8 g ai/ha, scale 0 to 100 (0 no effect, 100 complete control)
# [18] = 16 g ai/ha, scale 0 to 100 (0 no effect, 100 complete control)
# [19] = 31 g ai/ha, scale 0 to 100 (0 no effect, 100 complete control)
# [20] = 62 g ai/ha, scale 0 to 100, 0 no effect, 100 complete control
# [21] = 8 g ai/ha, postemergence, 0-100 scale
# [22] = 31 g ai/ha, scale 0 to 100, 0 no effect, 100 complete control
smiles,measurement,setting,value
"Cc1cn(-c2ccc(Cl)cc2)nc1-c1c(O)cnn(C)c1=O [Compound 30, 4-[1-(4-chlorophenyl)-4-methyl-1H-pyrazol-3-yl]-5-hydroxy-2-methyl-3(2H)-pyridazinone]","Plant response rating, Mustard, Wild",[1],0
same,"Plant response rating, Canarygrass",[2]; [17],0
same,"Plant response rating, Canarygrass",[2]; [18],0
same,"Plant response rating, Canarygrass",[2]; [19],65
same,"Plant response rating, Canarygrass",[2]; [20],90
same,"Plant response rating, Wheat, Winter",[3]; [17],0
same,"Plant response rating, Wheat, Winter",[3]; [18],0
same,"Plant response rating, Wheat, Winter",[3]; [19],0
same,"Plant response rating, Wheat, Winter",[3]; [20],0
same,"Plant response rating, Pigweed",[4]; [17],0
same,"Plant response rating, Pigweed",[4]; [18],0
same,"Plant response rating, Pigweed",[4]; [19],0
same,"Plant response rating, Pigweed",[4]; [20],0
same,"Plant response rating, Oat, Wild",wild oat (Avena fatua); [17],0
same,"Plant response rating, Oat, Wild",wild oat (Avena fatua); [18],0
same,"Plant response rating, Oat, Wild",wild oat (Avena fatua); [19],30
same,"Plant response rating, Oat, Wild",wild oat (Avena fatua); [20],40
same,"Plant response rating, Windgrass",[5]; [20],35
same,"Plant response rating, Bluegrass",[6]; [17],0
same,"Plant response rating, Bluegrass",[6]; [18],0
same,"Plant response rating, Bluegrass",[6]; [19],0
same,"Plant response rating, Bluegrass",[6]; [20],0
same,"Plant response rating, Wheat, Spring",[7]; [17],0
same,"Plant response rating, Wheat, Spring",[7]; [18],0
same,"Plant response rating, Wheat, Spring",[7]; [19],0
same,"Plant response rating, Wheat, Spring",[7]; [20],20
same,"Plant response rating, Ryegrass, Italian",[8]; [17],0
same,"Plant response rating, Ryegrass, Italian",[8]; [18],30
same,"Plant response rating, Ryegrass, Italian",[8]; [19],60
same,"Plant response rating, Ryegrass, Italian",[8]; [20],75
same,"Plant response rating, Foxtail, Green",[9]; [17],10
same,"Plant response rating, Foxtail, Green",[9]; [18],25
same,"Plant response rating, Foxtail, Green",[9]; [19],80
same,"Plant response rating, Foxtail, Green",[9]; [20],100
same,"Plant response rating, Blackgrass",[10]; [17],0
same,"Plant response rating, Blackgrass",[10]; [18],20
same,"Plant response rating, Blackgrass",[10]; [19],90
same,"Plant response rating, Blackgrass",[10]; [20],98
same,"Plant response rating, Barley, Winter",[11]; [17],0
same,"Plant response rating, Barley, Winter",[11]; [18],0
same,"Plant response rating, Barley, Winter",[11]; [19],0
same,"Plant response rating, Barley, Winter",[11]; [20],15
same,"Plant response rating, Bromegrass, Downy",[12]; [17],0
same,"Plant response rating, Bromegrass, Downy",[12]; [18],0
same,"Plant response rating, Bromegrass, Downy",[12]; [19],0
same,"Plant response rating, Bromegrass, Downy",[12]; [20],0
COC(=O)Oc1cnn(C)c(=O)c1-n1nc(-c2ccc(Cl)cc2)cc1C [Compound 33],"Plant response rating, Canarygrass",[2]; [17],0
same,"Plant response rating, Canarygrass",[2]; [18],10
same,"Plant response rating, Canarygrass",[2]; [19],65
same,"Plant response rating, Canarygrass",[2]; [20],90
same,"Plant response rating, Wheat, Winter",[3]; [17],0
same,"Plant response rating, Wheat, Winter",[3]; [18],0
same,"Plant response rating, Wheat, Winter",[3]; [19],15
same,"Plant response rating, Wheat, Winter",[3]; [20],40
same,"Plant response rating, Pigweed",[4]; [18],0
same,"Plant response rating, Pigweed",[4]; [19],0
same,"Plant response rating, Pigweed",[4]; [20],0
same,"Plant response rating, Oat, Wild",wild oat (Avena fatua); [17],0
same,"Plant response rating, Oat, Wild",wild oat (Avena fatua); [18],25
same,"Plant response rating, Oat, Wild",wild oat (Avena fatua); [19],60
same,"Plant response rating, Oat, Wild",wild oat (Avena fatua); [20],75
same,"Plant response rating, Windgrass",[5]; [17],0
same,"Plant response rating, Windgrass",[5]; [18],0
same,"Plant response rating, Windgrass",[5]; [20],50
same,"Plant response rating, Bluegrass",[6]; [17],0
same,"Plant response rating, Bluegrass",[6]; [18],0
same,"Plant response rating, Bluegrass",[6]; [19],0
same,"Plant response rating, Bluegrass",[6]; [20],0
same,"Plant response rating, Wheat, Spring",[7]; [17],0
same,"Plant response rating, Wheat, Spring",[7]; [18],0
same,"Plant response rating, Wheat, Spring",[7]; [19],20
same,"Plant response rating, Wheat, Spring",[7]; [20],50
same,"Plant response rating, Ryegrass, Italian",[8]; [17],10
same,"Plant response rating, Ryegrass, Italian",[8]; [18],65
same,"Plant response rating, Ryegrass, Italian",[8]; [19],100
same,"Plant response rating, Ryegrass, Italian",[8]; [20],100
same,"Plant response rating, Foxtail, Green",[9]; [17],15
same,"Plant response rating, Foxtail, Green",[9]; [18],95
same,"Plant response rating, Foxtail, Green",[9]; [19],100
same,"Plant response rating, Foxtail, Green",[9]; [20],100
same,"Plant response rating, Blackgrass",[10]; [17],0
same,"Plant response rating, Blackgrass",[10]; [18],50
same,"Plant response rating, Blackgrass",[10]; [19],80
same,"Plant response rating, Blackgrass",[10]; [20],100
same,"Plant response rating, Barley, Winter",[11]; [17],0
same,"Plant response rating, Barley, Winter",[11]; [18],0
same,"Plant response rating, Barley, Winter",[11]; [19],0
same,"Plant response rating, Barley, Winter",[11]; [20],20
same,"Plant response rating, Bromegrass, Downy",[12]; [17],0
same,"Plant response rating, Bromegrass, Downy",[12]; [18],35
same,"Plant response rating, Bromegrass, Downy",[12]; [19],35
same,"Plant response rating, Bromegrass, Downy",[12]; [20],60
same,Chickweed plant response rating,[13]; [21],0
same,"Plant response rating, Chickweed","[13]; 16 g ai/ha, scale 0 to 100",0
same,"Plant response rating, Chickweed",[13]; [22],0
same,"Plant response rating, Chickweed",[13]; [20],0
same,Canarygrass plant response rating,[14]; [21],0
same,"Plant response rating, Canarygrass","[14]; 16 g ai/ha, scale 0 to 100",35
same,"Plant response rating, Canarygrass",[14]; [22],80
same,Windgrass plant response rating,[15]; [21],10
same,"Plant response rating, Windgrass","[15]; 16 g ai/ha, scale 0 to 100",50
same,"Plant response rating, Windgrass",[15]; [20],70
same,Barley plant response rating,[16]; [21],0
same,"Plant response rating, Barley",[16]; 16 g ai/ha,25
same,"Plant response rating, Barley",[16]; 31 g ai/ha,30
same,"Plant response rating, Barley",[16]; 62 g ai/ha,30
